Data on three molecules can be found in US20090270373A1, “TREATMENT OF DOWN SYNDROM WITH BENZODIAZEPINE RECEPTOR ANTAGONISTS” (Cypress Biosciences, Inc., priority 2008, published 2009).

Test [1] concerns Ts65Dn mice. It counts as in vivo, mouse. To be noted: 4-week crossover, flumazenil or bretazenil 1.0 mg/kg i.p. for 2 weeks, bilobalide 5.0 mg/kg i.p. throughout. Here is the method:
(§1) A 4-week longitudinal crossover study is carried out following the method outlined by Fernandez et al., supra. Wild-type and Ts65Dn mice (3-4 months of age) are randomly assigned to groups receiving daily i.p. injections of saline or flumazenil (1.0 mg/kg), and are submitted to four weekly repetitions of object recognition testing, in which the animals are serially presented with four different object sets. At the 2-week midpoint of the experimental period, wild-type and Ts65Dn mice that have been receiving saline are randomly segregated into groups that either continue to receive daily saline injections or begin to receive daily injections of flumazenil. Conversely, wild-type and Ts65Dn mice that have been chronically administered flumazenil in the first 2 weeks of testing are switched onto a saline regimen. Alongside saline and flumazenil, bilobalide (i.p. 5.0 mg/kg) may be evaluated as a positive control. Bilobalide is a picrotoxin-like compound that may safely be administered for the whole 4-week experiment.
(§2) Flumazenil may also be tested for its effects on declarative memory in the novel object recognition test and in a modified spontaneous alternation task. Wild-type and Ts65Dn mice may be administered flumazenil (3 mg/kg in milk via voluntary oral feeding or 1 mg/kg i.p.). The wild-type and Ts65Dn mice are administered from 5 to 30 doses of milk or milk-flumazenil (or saline or flumazenil solution i.p.). The mice are then subjected to two repetitions of novel object recognition testing or three daily T-maze sessions at the tail end of the treatment regimen. […] Comparison of treated and untreated Ts65Dn mice will provide controls for any possible arm bias in the spontaneous alternation task.
as §1, with “bretazenil” for “flumazenil”, “bretazenil.” for “flumazenil.”, “bretazenil,” for “flumazenil,”
as §2, with “Bretazenil may” for “Flumazenil may”, “administered bretazenil” for “administered flumazenil”

For test [2], the system named is Ts65Dn mice. Description: Long-term potentiation (LTP) in the dentate gyrus of Ts65Dn mice (paper Examples 1 and 2). It counts as in vivo, mouse. To be noted: about 1 month after cessation of drug treatment. The text has this: Since the ability of animals to learn and remember is thought to be encoded at the synaptic level, and involves the ability of synapses to undergo long-term changes in synapse strength, long-term potentiation (LTP) in the dentate gyrus may be evaluated.

The test system of another test is Down Syndrome patients. The experiment in a line: Cognition in Down Syndrome patients, double-blind cross-over (Example 3). Type of test: in vivo, human. To be noted: 5 and 20 mg. How it is done: Fifteen adult or adolescent Down Syndrome patients experiencing at least some level of cognitive impairment participate in a double-blind, cross-over comparison of […]. The drugs administered are flumazenil (5 and 20 mg), bretazenil (5 and 20 mg) or placebo. Subjects are randomly assigned to treatments according to a Williams Square design (Higgitt, supra (citing Williams, “Experimental designs balanced for the estimation of residual effects of treatments, Aust. J. Sci. Res. 2:149-168 (1949))). Each subject receives a different sequence of four treatments balanced for carry-over effects and separated by at least 1 week of wash-out period. […]
Psychophysiological indices to be measured include: EEG, skin conductance, finger tremor, critical flicker fusion threshold, blood pressure and pulse rate, key tapping rate, and reaction time. […]
EEG and evoked responses: These are recorded during the same EEG recording procedure. […] In addition, the four values are summed and each is expressed as a percentage of the total.
The averaged evoked responses are obtained from the 500 ms epoch of the EEG following each of the 32 click stimuli. […] The latency at each peak and peak-to-peak amplitudes are computed and recorded automatically. […]
Skin conductance, blood pressure and pulse rate can be measured by the method of Higgitt et al., supra. […]

For another test, the system named is WT and Ts65Dn mice. Description: Open-field locomotor assay (LMA), 30 min session. Type of test: in vivo, mouse. How it is done: (§3) Following baseline determinations and group assignments, WT and Ts65Dn mice received intraperitoneal (i.p.) injections once/day (08:00) for the two-week duration of the drug treatment regimen (FIG. 1). Drugs were dissolved in physiological saline. Two drops of Tween 80 were used to facilitate solution formation for flumazenil. Picrotoxin was initially made up at 50× concentration in 20% ethanol and then diluted down to a […] solution with 0.4% ETOH in saline. Doses of drugs were based on previous behavioral research in mice (1 mg/kg for PTX and 10 mg/kg for flumazenil). Injections were given in a volume of 10 ml/kg. A vehicle control was run along side the treatment groups (0.4% ETOH in saline).
(§4) FIG. 1 graphically depicts the protocol. After habituation to the animal facility, mice were tested for baseline behaviors in the open-field locomotor assay (LMA)(30 min session) and the novel object recognition assay. Primary experimental groups were divided by genotype (Ts65Dn mice and wild-type control littermates). These two groups were further divided into drug treatments (vehicle, PTX and flumazenil) with a targeted n-size of 8 mice/group (24 WT and 24 Ts65Dn mice total). The group assignments were made in a semi-random process due to constraints in animal availability (staggered shipping) and choice of initial treatment groups (e-mail documentation between Bilsky laboratory and Cypress Bioscience on file). Daily morning injections began on Day 1 and went through the morning of Day 14. On Days 7/8 and 14/15 (13:00) mice were tested in the behavioral assay. Mice were kept for an additional two weeks and re-tested on Days 21/22 and 28/29 to assess the duration of the drug treatment effect.
General levels of arousal, locomotor activity and anxiety were assessed using an automated open-field activity monitoring system (Coulbourn Instruments with TruScan software). The open field test that were run were fully automated assays that quantified many different aspects and patterns of movement, including total distance traveled, time spent moving, rearing, and various stereotypic patterns of activity. The software calculates the time spent in the middle portions of the open field versus the outer zones alongside the outside walls. These variables can be used as one measure of general anxiety levels.
Mice were placed into an open field (26 cm×26 cm) in a brightly lit room. Two sensor rings (x-y plane and a vertical z plane) generate an array of infrared beams that surround the chamber. The pattern of beam breaks was recorded and the data fed into a personal computer. The TruScan software interpreted the beam breaks to calculate the movement variables and patterns of activity, with a temporal resolution of 100 msec. A 30 minutes session was used for assessment of the mice on Day 0 (Baseline) and then on Days 1, 7, 14, 21 and 28. Data were exported into an Excel spreadsheet, graphed and analyzed using parametric and non-parametric statistics.

The subject of another test is WT mice. Description: Novel object recognition assay (Discrimination Index) in WT mice. It counts as in vivo, mouse. How it is done:
as §3, §4
(§5) The novel object recognition task is based on the innate tendency of rodents to differentially explore novel objects over familiar ones. The task is well validated for evaluating rodent memory and the effects of drug treatments on learning/memory performance.
(§6) Mice were trained and tested once per week, each experimental session separated by a one-week interval. Mice were submitted to daily handling sessions, and given an opportunity to habituate to an open field arena (48 cm×48 cm wide×25 cm), where they were exposed to two different objects (complex protocol), during a 5-minute training session. Objects were made from various non-porous materials that differ in shape and color. Mice were unable to climb onto the objects and the objects were generally consistent in height and volume, and were roughly symmetrical on a horizontal plane. Objects were positioned in two corners of the apparatus. To control for odor cues, the open field arena and the objects are thoroughly cleaned with 90% ethanol, dried, and ventilated for a few minutes between mice.
(§7) A 5-minute testing session was conducted 24 h after training. Here, the mice were presented with the object they had explored the previous day, and a new item (the objects being alternatively positioned in one corner or another in a balanced fashion within a given week, and from one week to another). […]

The subject of test [3] is Ts65Dn mice. The experiment in a line: Novel object recognition assay (Discrimination Index) in Ts65Dn mice, model of Down syndrome. Type of test: in vivo, mouse. How it is done:
as §3, §4, §5, §6, §7

Test [4] concerns Ts65Dn mice. The settings on record: cited from earlier work; for improvement in cognition: 4 week crossover study.
The mark [5] stands for this setting: Week 1 of drug therapy, PTX 1 mg/kg, flumazenil 10 mg/kg i.p.

As to `CC(C)(C)OC(=O)c1ncn2c1[C@@H]1CCCN1C(=O)c1c(Br)cccc1-2` [bretazenil, tert-butyl-(S)-8-bromo-11,12,13,13a-tetrahydro-9-oxo-9H-imidazo[1,5-a]pyrrolo[2,1-c][1,4]benzodiazepine-1-carboxylate], the object recognition performance result in the test with Ts65Dn mice [1] is “normalized object recognition performance”. Further, the “LTP in the dentate gyrus” value in the test with Ts65Dn mice [2] is recorded as “Normalized LTP”. For the same molecule, the “indicators of cognition as compared to placebo” value in the test with Down Syndrome patients is “improvement in one or more indicators of cognition”.

picrotoxin [PTX]: the “LMA center distance traveled” value is recorded as “mild rebound effect” in the test with WT and Ts65Dn mice (7 and 14 days post dosing); “decreased levels of activity” with WT and Ts65Dn mice (drug administration phase (Days 1, 7 and 14), PTX 1 mg/kg, flumazenil 10 mg/kg i.p.). The “LMA margin vs. center time” value with WT and Ts65Dn mice (Day 1) is recorded as “trend for decreased center time”; with WT and Ts65Dn mice (Day 7) it was “small decrease in time spent in the center zone”; in the test with WT and Ts65Dn mice (Day 21 (washout period)) it was “increased time spent in center”; in the test on WT and Ts65Dn mice (Day 28 (washout period)), “trend for increased time spent in the center zone”. In addition, the LMA vertical rearing entry with WT and Ts65Dn mice (WT and Ts65Dn mice, PTX during drug administration phases, flumazenil over the 4 week testing regimen) is recorded as “dropping significantly”. Moreover, the “LMA marginal distance traveled” value with WT and Ts65Dn mice (WT and Ts65Dn mice, across sessions, PTX 1 mg/kg, flumazenil 10 mg/kg i.p.) is given as “decreased distance traveled”. Also, the “LMA total distance traveled” value in the test on WT and Ts65Dn mice (dosing phase (Days 1, 7 and 14), PTX 1 mg/kg i.p.) is on record as “modest decrease”. The “time after last dosing until LMA effects were gone” value with WT and Ts65Dn mice (total distance traveled, PTX 1 mg/kg i.p.) is recorded as not above 7 days. Also, the “Discrimination Index (DI)” value was approximately 30 in the test on WT mice (setting [5]); “no differences” with WT mice (Week 2 of drug therapy, versus vehicle); “positive DI” in the test with WT mice (Week 4 (2 weeks post dosing)); “positive effects” with Ts65Dn mice [3] (setting [5]); “positive effects” with Ts65Dn mice [3] (Week 2 of drug therapy). In the test on Ts65Dn mice [4], the improvement in cognition result is reported as “statistically significant improvement”. In the test with Ts65Dn mice [4] (Ts65Dn mice, two-week dosing regimen of 1.0 mg/kg i.p.), the rescue of cognition result is reported as “clear benefit”.

Take `CC(C)(C)[C@]1(O)CC2OC(=O)CC23C(=O)OC2OC(=O)[C@H](O)C231` (stereo partly shown) [bilobalide]: the object recognition performance result in the test with Ts65Dn mice [1] is on record as “normalized object recognition performance”. The improvement in cognition result in the test with Ts65Dn mice [4] is given as “statistically significant improvement”.
